Measurements taken from patent US10716771B2, “Pharmaceutical composition for preventing or treating immune diseases or inflammatory diseases, containing biguanide derivative compound as active ingredient” (THE CATHOLIC UNIVERSITY OF KOREA INDUSTRY-ACADEMIC …, priority 2013, dated 2020).

Columns and labels:
IgG = IgG (autoantibody) ELISA, Example 8-2; format: cell-based, mouse; settings: incubated supernatant, compared with metformin
Experimental: In order to evaluate an arthritis therapeutic effect of the biguanide derivative compound of the present invention, in a rheumatoid arthritis animal model, cytotoxicity, generation of autoantibody, expression of inflammatory cytokines and regulatory T cells (Treg), and osteoclast differentiation were measured. Like Examples, metformin was used as a control group.
In order to examine an effect of suppressing the generation of autoantibody of the biguanide derivative compound of the present invention, the incubated supernatant was collected and the IgG expression degree was examined by using an ELISA. A monoclonal anti-IgG was reacted at 4° C. overnight in a 96-well plate and then a non-specific binding was blocked by a blocking solution. A mouse control serum was continuously diluted by 1/2 to be used as a standard, added with the cell-incubated supernatant, and reacted at room temperature for 2 hrs. Thereafter, HRP-anti-IgG was reacted at room temperature for 2 hrs, washed four times after reaction, added with the diluted HRP-conjugate, and reacted at room temperature for 2 hrs.

IL-17 [1] = test: IL-17 sandwich ELISA, Example 8-3; format: cell-based, mouse; settings: incubated supernatant
Experimental: (§1) In order to evaluate an arthritis therapeutic effect of the biguanide derivative compound of the present invention, in a rheumatoid arthritis animal model, cytotoxicity, generation of autoantibody, expression of inflammatory cytokines and regulatory T cells (Treg), and osteoclast differentiation were measured. Like Examples, metformin was used as a control group. In order to evaluate an effect of suppressing the expression of the inflammatory cytokine of the biguanide derivative compound of the present invention, the incubated supernatant was collected and the expression degrees of IL-17 and TNF-α of a mouse were examined by using a sandwich ELISA. […] of a monoclonal anti-IL-17 or anti-TNF-α was reacted in a 96-well plate at 4° C. overnight and then a non-specific binding was blocked by a blocking solution (1% BSA/PBST) after the reaction. An IL-17 or TNF-α recombinant was continuously diluted by 1/2 to be used as a standard, added with the cell-incubated supernatant, and reacted at room temperature for 2 hrs. Thereafter, biotinylated anti-IL-17 or anti-TNF-α was added and reacted at room temperature for 2 hrs, washed four times after the reaction, diluted with a diluted ExtraAvidin-alkaline phosphatase conjugate, and reacted at room temperature for 2 hrs. After the reaction, a PNPP/DEA was added and colored, and absorbance was measured at a wavelength of 405 nm.

Foxp3+ Treg cells = test: Regulatory T cell (Treg) expression by flow cytometry, Example 8-3; format: cell-based, mouse; settings: anti-CD4, anti-CD25, anti Foxp3
Experimental: In order to evaluate an arthritis therapeutic effect of the biguanide derivative compound of the present invention, in a rheumatoid arthritis animal model, cytotoxicity, generation of autoantibody, expression of inflammatory cytokines and regulatory T cells (Treg), and osteoclast differentiation were measured. Like Examples, metformin was used as a control group. Further, in order to examine whether the biguanide derivative compound of the present invention activates the expression of regulatory T cells (Treg), the incubated cells were flow-cytometry by using anti-CD4-percp, anti-CD25-APC, and anti Foxp3-Pe fluorescent antibodies (ab), and as a result, it was verified that SD-196, 216 and 217 activated the Foxp3+ Treg cells (see FIG. 10).

IL-17 [2] = test: IL-17 expression in lupus animal model; format: cell-based
Experimental: as §1, with “In” for “In order to evaluate an arthritis therapeutic effect of the biguanide derivative compound of the present invention, in a rheumatoid arthritis animal model, cytotoxicity, generation of autoantibody, expression of inflammatory cytokines and regulatory T cells (Treg), and osteoclast differentiation were measured. Like Examples, metformin was used as a control group. In”
(§2) In order to evaluate a lupus therapeutic effect of the biguanide derivative compound of the present invention, in a lupus animal model, cytotoxicity, autoantibody generation, generation of inflammatory cytokines, and Th17 regulation were measured by the same method as Example 8.

TNF-α [3] = test: TNF-α expression in lupus animal model; format: cell-based
Experimental: as §1, with “In” for “In order to evaluate an arthritis therapeutic effect of the biguanide derivative compound of the present invention, in a rheumatoid arthritis animal model, cytotoxicity, generation of autoantibody, expression of inflammatory cytokines and regulatory T cells (Treg), and osteoclast differentiation were measured. Like Examples, metformin was used as a control group. In”
as §2

normal cells = test: Cytotoxicity (MTT) in normal (human) cells; format: cell-based
Experimental: In order to examine cytotoxicity of the biguanide derivative compound of the present invention, an MTT assay was performed. Cells were isolated from the spleen in a normal mouse group and the isolated cells were incubated for 3 days in the concentration of 0.5 μg/ml of anti-CD3 or 100 ng/ml of LPS 100, and metformin, SD-196, SD-216 or SD-217 was treated for each concentration and incubated for 3 days. […] In order to evaluate a development possibility of the biguanide derivative compound of the present invention as an agent for preventing or treating immune diseases, effects of modulating cytotoxicity and generation of inflammatory cytokines by targeting normal cells were measured by the same method as Example 8.

TNF-α [4] = test: TNF-α expression in normal (human) cells; format: cell-based; settings: compared with metformin
Experimental: as §1, with “In” for “In order to evaluate an arthritis therapeutic effect of the biguanide derivative compound of the present invention, in a rheumatoid arthritis animal model, cytotoxicity, generation of autoantibody, expression of inflammatory cytokines and regulatory T cells (Treg), and osteoclast differentiation were measured. Like Examples, metformin was used as a control group. In”
In order to evaluate a development possibility of the biguanide derivative compound of the present invention as an agent for preventing or treating immune diseases, effects of modulating cytotoxicity and generation of inflammatory cytokines by targeting normal cells were measured by the same method as Example 8.

SMILES | expression of IgG (IgG) | IL-17 inflammatory cytokine expression (IL-17 [1]) | Foxp3+ Treg cells (Foxp3+ Treg cells) | expression of IL-17 (IL-17 [2]) | expression of TNF-α (TNF-α [3]) | cytotoxicity (normal cells) | expression of TNF-α (TNF-α [4])
CC(C)NC(=N)NC(=N)N [SD-000196, 1-isopropylbiguanide] | significantly suppressed | significantly suppressed | activated | suppressed | suppressed |  | 
N=C(N)NC(=N)Nc1ccc(F)cc1F [SD-000217, 1-(2,4-difluorophenyl)biguanide] | significantly suppressed | significantly suppressed | activated | suppressed | suppressed | no cytotoxicity | suppressed
NC(N)=N/C(N)=N/c1cccc(F)c1 [SD-000216, 1-(3-fluorophenyl)biguanide] | significantly suppressed | significantly suppressed | activated | suppressed | suppressed | no cytotoxicity | suppressed
